# Source: patent US20170209348A1, “BIOPHOTONIC COMPOSITIONS COMPRISING HALOGEN AND USES THEREOF” (KLOX Technologies Inc., priority 2014, published 2017)
# Test: Photobleaching of Eosin Y in carbomer gel under blue light
# Type: physicochemical
# Settings: 109 μg/g Eosin Y, 12% urea peroxide, 200 ppm KI, blue light 5 cm, 10 minutes
# Description: In this experiment, a first carbomer gel comprising 109 μg/g of Eosin Y and 12% urea peroxide (UP) was prepared. […] The two gels were then illuminated with blue light (5 cm distance) for 10 minutes. The fluorescence was measured and recorded by a spectrophotometer.
compound,measurement,value
[I-].[K+] [KI],time taken to photobleach the chromophore,prolonged the time taken to photobleach the chromophore
